Experiment [1] deals with M. pneumoniae. Nature of the experiment: M. pneumoniae adhesion to immobilized glycoproteins adsorbed on plastic. Format: binding, Mycoplasma pneumoniae strain M129. The following applies: for M. pneumoniae adhesion to immobilized glycoprotein (in words): adsorbed on plastic; for amount of glycoprotein coated that promotes adhesion: coated wells; for Relative binding activity: relative to fetuin = 1.0, from amount for half maximal binding, mean of 2 or 3 experiments. Here is the method:
Glycoproteins dissolved in 0.01 M sodium phosphate buffer, pH 7.4, containing 150 mM NaCl, 1 mM CaCl2, and 0.01% NaN3 were adsorbed onto plastic polyvinylchloride […] microtiter plates by incubation for 16 hours at 4° C. The unbound proteins were removed, and the wells were filled with tris-BSA and incubated for 30 minutes at room temperature. The wells were rinsed with RPMI1640 containing 25 mM HEPES, pH 7.3, and 1% bovine serum albumin. M. pneumoniae strain M129 labelled with [^3 H]-palmitate were dispersed in RPMI-BSA by passing four times through a 26 gauge needle, and 50 μl of the suspension was applied to the wells. After incubation for 60 minutes at 37° C., the wells were washed five times with saline and the labelled M. pneumoniae bound to the proteins were quantified by scintillation counting in Aquasol. […]

For experiment [2], the system named is M. pneumoniae binding to sulfatide. Nature of the experiment: Inhibition of M. pneumoniae binding to sulfatide adsorbed on plastic. More on the design: species or system Mycoplasma pneumoniae strain M129. The note with it: for inhibition of binding to sulfatide at 100 μg/ml (in words): sulfatide in microtiter plates. Here is the method: (§1) Virulent M. pneumoniae strain M129, passage 5-15, were grown and metabolically labelled with [^3 H]palmitic acid, 12-17 Ci/mole, as described by Chandler et al. in Infect. Immun. 37: 942, 1982. The organisms were passed four times through a 26 gauge needle and suspended to approximately 10^7 cpm/ml of degassed RPMI 1640 medium containing 1% bovine serum albumin and 25 mM HEPES, pH 7.3.
(§2) The binding of M. pneumoniae to purified glycolipids immobilized in microtiter plates was measured as described by Krivan et al. in Proc. Natl. Acad. Sci., op. cit. Purified glycolipids were serially diluted in 25 μl of methanol containing 0.1 μg each of the auxiliary lipids cholesterol and phosphatidylcholine. After the solutions were dried by evaporation, the wells were filled with TBS-BSA, emptied after one hour, rinsed with RPMI-BSA, and incubated with 25 μl of [^3 H]-M. pneumoniae, approximately 10^7 cpm/ml RPMI-BSA. After incubation for two hours at 37° C., unless otherwise stated, the wells were washed five times with saline and bound M. pneumoniae was quantified by scintillation counting in Aquasol. For inhibition studies, various polysaccharides were serially diluted in […] of [^3 H]-M. pneumoniae.
To obtain the results shown in FIG. 4, polysaccharides were serially diluted in 25 μl of RPMI-BSA in microtiter wells previously coated with 1 μg of purified sulfatide. Binding was determined after incubation of two hours at 37° C. with 25 μl of [^3 H]-M. pneumoniae with the indicated concentration of dextran ( .circle. ) or dextran sulfate.

Experiment [3] deals with M. pneumoniae. Briefly: Mycoplasma overlay assay: binding of [3H]-M. pneumoniae to glycolipids on thin layer chromatograms. The arrangement: species or system Mycoplasma pneumoniae strain M129. The note with it: for Binding (ability to bind M. pneumoniae): Table I, class by amount of lipid bound; for binding of M. pneumoniae to glycolipid (in words): thin layer chromatogram overlay. The procedure:
as §1
M. pneumoniae were bound to glycolipids separated on thin-layer chromatograms as described in detail for other bacteria by Krivan et al., Proc. Natl. Acad. Sci. 85: 6157-6161, 1988, and Krivan et al., Arch. Biochem. Biophys. 260:493-496, 1988. Briefly, glycolipids were separated by thin-layer chromatography on aluminum-backed silica gel high-performance plates developed with chlooform:methanol:0.25% CaCl2 in water (60:35:8). After chromatography, the plates were coated with 0.1% polyisobutylmethacrylate, soaked in 0.05 M Tris-HCl, pH 7.6, containing […] sodium chloride, 5 mM CaCl2, 0.2 mM phenylmethane-sulfonyl fluoride, and 1% bovine serum albumin (TBS-BSA) and incubated for three hours at 25° C. with 60 μl/cm^2 of [^3 H]-labelled M. pneumoniae, approximately 10^7 cpm/ml of RPMI-BSA. The plates were gently washed five times in 0.01 M sodium phosphate, pH 7.2, containing 0.15 M sodium chloride (PBS) to remove unbound organisms, dried, and exposed for 24 hours to Ultrofilm ^3 H (2208-190) high speed film.
To obtain the results shown in FIG. 1, glycolipids were chromatographed on aluminum-backed silica gel HPTLC plates developed in chloroform/methanol/0.25% CaCl2 in water, 60:35:8. The plates were coated with plastic, soaked in Tris-BSA, and incubated for three hours at 25° C. with [^3 H]-palmitate-labelled M. pneumoniae suspended in RPMI 1640 containing 1% BSA and 25 mM HEPES, pH 7.3, as described above (Panel A), or sprayed with orcinol reagent to identify glycolipids (Panel B). Lane a, acidic glycolipid standards sulfatide (0.5 μg), GM3 (2 μg), GM2 (2 μg), GD1a (2 μg), GD1b (2 μg), GT1b (2 μg); lane b, neutral standards galactosyl ceramide (4 μg), lactosylceramide (4 μg), globotriaosylceramide (2 μg), c2(0.5 μg). and c3 (o.1 μg); lane d, seminolipid (2 μg); lane e, cholesterol 3 -sulfate (2 μg); lane f, human trachea acidic glycolipids from 100 mg wet weight […]; lane h, α2-3sialylparagloboside (2 μg); lane 1, I-active monosialylganglioside from bovine erythrocytes (2 μg).

Experiment [4] relates to M. pneumoniae. Briefly: Solid-phase binding of [3H]-M. pneumoniae to purified glycolipids immobilized in microtiter plates. The arrangement: species or system Mycoplasma pneumoniae strain M129. The following applies: for binding of M. pneumoniae to immobilized lipid (in words): microtiter plate, up to 10 μg per well. Here is the method:
as §1, §2
To obtain the results shown in FIG. 2, lipids in […] each of the auxiliary lipids cholesterol and phosphatidylcholine were evaporated in flat bottom wells of polyvinylchloride microtiter plates. The wells were blocked with 1% albumin for one hour, washed twice with RPMI-BSA, and incubated at 25° C. with 25 μl of [^3 H]-M. pneumoniae, approximately […]. After two hours, the wells were washed five times with saline, cut from the plate, and bound radioactivity was quantified in a scintillation counter. In control experiments, organisms were incubated with auxiliary lipids only to correct for nonspecific binding, typically <1% of the total radioactivity added. M. pneumoniae binding was determined in RPMI-BSA for sulfatide ( .circle. ), lactosylceramide, paragloboside, and cholesterol sulfate, ceramide trihexoside, globoside, GM1, GM2, or GM3 ( .largecircle.).
Binding of [^3 H]-M. pneumoniae was determined in RPMI-BSA for two hours at 4° C., 25° C. ( .circle. ), 37° C., and at 37° C. in BSA without RPMI (Δ).

In experiment [5] the test system is M. pneumoniae binding to laminin. Nature of the experiment: Inhibition of M. pneumoniae binding to laminin adsorbed on plastic. More on the design: species or system Mycoplasma pneumoniae strain M129. The procedure: Glycoproteins dissolved in 0.01 M sodium phosphate buffer, pH 7.4, containing 150 mM NaCl, 1 mM CaCl2, and 0.01% NaN3 were adsorbed onto plastic polyvinylchloride […] microtiter plates by incubation for 16 hours at 4° C. The unbound proteins were removed, and the wells were filled with tris-BSA and incubated for 30 minutes at room temperature. The wells were rinsed with RPMI1640 containing 25 mM HEPES, pH 7.3, and 1% bovine serum albumin. M. pneumoniae strain M129 labelled with [^3 H]-palmitate were dispersed in RPMI-BSA by passing four times through a 26 gauge needle, and 50 μl of the suspension was applied to the wells. After incubation for 60 minutes at 37° C., the wells were washed five times with saline and the labelled M. pneumoniae bound to the proteins were quantified by scintillation counting in Aquasol.
For inhibition studies, sugars in 25 μl of RPMI-BSA were added to wells coated with 10 μg/ml laminin followed by 25 μl of [^3 H]-M. pneumoniae. Binding was determined to both laminin-coated and uncoated wells in triplicate at each inhibitor concentration and in the absence of inhibitor. In some experiments, the adsorbed proteins were pretreated with neuraminidase. After adsorption of the proteins and incubation in tris-BSA, the wells were rinsed three times with 50 mM sodium acetate, pH 5.5, containing 150 mM NaCl, 5 mM CaCl2, 1 mg/ml bovine serum albumin, and 1 mM phenylmethanesulfonyl fluoride. The wells were incubated with 0.05 units/ml neuraminidase in the same buffer or with buffer without enzyme overnight at 20° C. The wells were rinsed three times with tris-BSA, and M. pneumoniae binding was determined as described above.

“Also recorded” adds a separate entry of the source. Structures can show the parent of a compound that is named as a salt. A value given as a limit tells only on which side of the number the result lay.

As to “Human platelet thrombospondin: adhesive glycoprotein”, in experiment [1], the “M. pneumoniae adhesion to immobilized glycoprotein (in words)” value (“M. pneumoniae adhesion” for short) was “strongly promote adhesion”, the “amount of glycoprotein coated that promotes adhesion” value is listed as “less than 10 ng” and the Relative binding activity amounted to 0.7.

Turning to chondroitin sulfate, the “inhibition of binding to sulfatide at 100 μg/ml (in words)” value (“inhibition … at 100 μg/ml (in words)” for short) in experiment [2] is on record as “did not inhibit binding”.

Regarding fucoidin, the “inhibition … at 100 μg/ml (in words)” value in experiment [2] is given as “did not inhibit binding”.

Turning to “Bovine Fetuin: major protein in fetal calf serum”, in experiment [1], the “M. pneumoniae adhesion” value was “promote dose-dependent and saturable adhesion”; the “amount of glycoprotein coated that promotes adhesion” value was “less than 10 ng”; the Relative binding activity is on record as 1.0.

In turn, Bovine serum Albumin: protein displayed a Relative binding activity in experiment [1] of under 0.01.

“galactosyl ceramide-I^3 -sulfate [Sulfatide]”: the “Binding (ability to bind M. pneumoniae)” value in experiment [3] is “+++ (positive binding to less than 0.5 μg)”. In addition, the “binding of M. pneumoniae to glycolipid (in words)” value (shortened to “binding … to glycolipid (in words)”) in experiment [3] (listed as galactosyl ceramide I^3 -sulfate) is “does not discriminate between galactosyl ceramide I^3 -sulfate and its unnatural 6-sulfate isomer”; in experiment [3] (listed as sulfatide) it was “bound strongly; also recorded: bound avidly”. In experiment [3] (thin layer chromatogram, lane C3), the “amount of glycolipid detected by M. pneumoniae overlay” value amounted to 100 ng. Further, the “binding activity at 4° C.” value in experiment [4] (4° C., RPMI-BSA) is on record as “almost completely abolished; also recorded: minimal”. Also, the “binding activity at 25° C. (relative to 37° C.)” value in experiment [4] (25° C., RPMI-BSA) was “about five times lower”. For the same compound, the “amount of sulfatide required for half-maximum binding” value in experiment [4] (37° C., RPMI-BSA) was “about 0.25 μg”. In experiment [4] (37° C., Tris-BSA without RPMI), the “binding in nutrient-deficient medium” value is recorded as “almost completely abolished; also recorded: bound poorly”. In addition, the “binding in RPMI medium at 37° C.” value in experiment [4] (RPMI medium, 37° C. / physiological temperatures) is recorded as “maximal”. The “binding of M. pneumoniae to immobilized lipid (in words)” value in experiment [4] is “good dose response; also recorded: bind to sulfatide adsorbed on plastic; also recorded: sensitive and dose-dependent”.

Take heparin: the “inhibition … at 100 μg/ml (in words)” value in experiment [2] is reported as “did not inhibit binding”.

Turning to `CC(=O)NC1C(O)CC(OCC2OC(OC3C(CO)OC(O)C(O)C3O)C(O)C(O)C2O)(C(=O)O)OC1C(O)C(O)CO` (stereo not shown) [6'-sialyllactose], the “Binding % of control” value in experiment [5] (5 mM inhibitor, laminin substrate, 60 min) is reported as 54 % of control. The “relative inhibitory activity, binding to laminin (in words)” value in experiment [5] (compared with 3'-sialyllactose or other fetuin oligosaccharide fractions) was “at least ten-fold less active”. The IC50 in experiment [5] (oligosaccharide concentrations as sialic acid, read-out: I.D.50, substrate laminin) was over 5 mM.

In the case of Paragloboside, in experiment [3], the “Binding (ability to bind M. pneumoniae)” value was “+ (2-4 μg)” and the “binding … to glycolipid (in words)” value is reported as “weakly”. Moreover, the “binding of M. pneumoniae to immobilized lipid (in words)” value in experiment [4] is “bound weakly”.

Turning to hyaluronate, the “inhibition … at 100 μg/ml (in words)” value in experiment [2] is “did not inhibit binding”.

In the case of colominic acid, the “inhibition … at 100 μg/ml (in words)” value in experiment [2] is listed as “did not inhibit binding”.

Regarding Lactosylceramide [Lactosylcer (CDH)], in experiment [3], the “Binding (ability to bind M. pneumoniae)” value is recorded as “++ (0.5 to 2 μg)” and the “binding … to glycolipid (in words)” value is recorded as “weakly”. For the same compound, in experiment [3] (listed as lactosylderamide), the “binding … to glycolipid (in words)” value was “binds to high amounts”. Moreover, the “binding of M. pneumoniae to immobilized lipid (in words)” value in experiment [4] is reported as “bound weakly”.

Regarding `CC(C)CCC[C@@H](C)[C@H]1CC[C@H]2[C@@H]3CC=C4C[C@@H](OS(=O)(=O)O)CC[C@]4(C)[C@H]3CC[C@]12C` [cholesterol sulfate, cholesterol 3 -sulfate], in experiment [3], the “binding … to glycolipid (in words)” value is listed as “does not bind”. Further, the “binding of M. pneumoniae to immobilized lipid (in words)” value in experiment [4] is on record as “no binding was detected”.

As to Human Transferrin: protein, in experiment [1], the “M. pneumoniae adhesion” value is “no binding of M. pneumoniae was detected” and the Relative binding activity is given as under 0.01.

As for dextran, the “inhibition of binding to sulfatide (in words)” value in experiment [2] (sulfatide adsorbed on plastic) is given as “no effect”.

Values taken from patent US5089479A, “Adhesion of Mycoplasma pneumoniae and Mycoplasma hominus to sulfatide” (priority 1988, dated 1992).
